Assay results as given in US10385052B2, “Tricyclic compound and JAK inhibitor” (NISSAN CHEMICAL CORPORATION, priority 2014, dated 2019).
pIC50: −log10 of the molar value.

Legend:
Tyk2 = Tyk2 (Homo sapiens (Human), UniProt P29597); assay: Tyk2 enzyme assay; type: biochemical; details: enzyme 0.25 μg/mL, ATP 20 μM
Description: (§1) The JAK inhibitory activities of compounds of the present invention were measured.
(§2) The enzymes (JAK1, JAK2, JAK3 and Tyk2) were purchased from Carna Biosciences, Inc.
(§3) As the substrate for the enzymes (hereinafter referred to as the substrate), LANCE Ultra ULight-JAK-1 (Tyr1023) Peptide (manufactured by PerkinElmer Co., Ltd.) was used.
(§4) As the antibody for detecting phosphorylation of the substrate, LANCE Ultra Europium-anti-phospho tyrosine antibody (PT66) (manufactured by PerkinElmer Co., Ltd.) was used.
(§5) The compounds of the present invention, the enzymes (JAK1, JAK2, JAK3 and Tyk2), the substrate and ATP were used for the assays after diluted with the assay buffer.
(§6) The enzyme concentrations and the ATP concentrations in the respective enzyme (JAK1, JAK2, JAK3 and Tyk2) assays were as follows.
Tyk2 enzyme assay; the enzyme concentration was 0.25 μg/mL and the ATP concentration was 20 μM.
(§7) The concentration of the substrate for the enzymes was 25 nM.
(§8) Dilute solutions of compounds and enzymes were dispensed into wells of a 384-well black plate (manufactured by Greiner bio-one) and preincubated at room temperature for 5 minutes.
(§9) Then, a dilute solution of the substrate and then a dilute solution of ATP were added, and the plate was incubated at room temperature for 30 minutes.
(§10) Then, a dilute solution of EDTA and then a dilute solution of PT66 were added, and the plate was incubated at room temperature for 1 hour.
(§11) The fluorescences were measured with ARVO-HTS, and from the plot of logarithm of a compound concentration and inhibitory activity, the IC50 value was calculated.

JAK2 = JAK2 (Homo sapiens (Human), UniProt O60674); assay: JAK2 enzyme assay; type: biochemical; details: enzyme 0.013 μg/mL, ATP 10 μM
Sequence of JAK2 (O60674 whole entry): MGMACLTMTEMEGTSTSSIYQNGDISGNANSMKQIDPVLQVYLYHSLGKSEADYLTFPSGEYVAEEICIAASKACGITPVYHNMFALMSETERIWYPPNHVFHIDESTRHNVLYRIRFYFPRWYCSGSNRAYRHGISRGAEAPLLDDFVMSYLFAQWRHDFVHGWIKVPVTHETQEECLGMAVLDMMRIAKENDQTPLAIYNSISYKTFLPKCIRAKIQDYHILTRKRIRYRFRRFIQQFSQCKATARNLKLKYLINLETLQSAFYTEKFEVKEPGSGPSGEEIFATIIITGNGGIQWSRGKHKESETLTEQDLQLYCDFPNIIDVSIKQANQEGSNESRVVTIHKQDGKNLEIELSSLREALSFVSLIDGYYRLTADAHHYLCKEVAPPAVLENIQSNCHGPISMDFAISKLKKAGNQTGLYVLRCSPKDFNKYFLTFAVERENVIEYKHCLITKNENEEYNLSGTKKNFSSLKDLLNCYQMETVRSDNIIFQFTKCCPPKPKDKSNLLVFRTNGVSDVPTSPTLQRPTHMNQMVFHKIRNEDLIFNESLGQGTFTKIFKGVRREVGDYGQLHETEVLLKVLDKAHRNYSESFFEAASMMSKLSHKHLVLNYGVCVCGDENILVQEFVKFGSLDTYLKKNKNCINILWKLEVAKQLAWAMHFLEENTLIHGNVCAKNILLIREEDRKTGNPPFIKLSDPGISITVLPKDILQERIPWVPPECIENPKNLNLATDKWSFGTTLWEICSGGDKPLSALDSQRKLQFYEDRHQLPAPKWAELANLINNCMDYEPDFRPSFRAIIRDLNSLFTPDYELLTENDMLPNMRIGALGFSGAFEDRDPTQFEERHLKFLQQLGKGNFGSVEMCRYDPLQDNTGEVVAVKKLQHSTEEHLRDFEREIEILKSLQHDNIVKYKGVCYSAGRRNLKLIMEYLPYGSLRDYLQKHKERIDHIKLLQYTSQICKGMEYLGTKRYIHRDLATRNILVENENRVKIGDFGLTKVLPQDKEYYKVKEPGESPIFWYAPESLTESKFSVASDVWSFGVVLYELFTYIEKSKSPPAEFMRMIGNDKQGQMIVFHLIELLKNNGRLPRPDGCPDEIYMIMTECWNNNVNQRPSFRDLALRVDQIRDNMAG
Description: as §1, §2, §3, §4, §5, §6
JAK2 enzyme assay; the enzyme concentration was 0.013 μg/mL, and the ATP concentration was 10 μM.
as §7, §8, §9, §10, §11

[1] = test system: cytokine signaling via JAK; assay: Signal assay in human whole blood (STAT phosphorylation assay); type: cell-based; details: T-cell, human IL-6 100 ng/mL, phosphated STAT-1 in CD3 positive T cells
Description: 3. Signal Assay in Human Whole Blood
The inhibitory activities of the compounds of the present invention obtained in Synthetic Examples 3 to 7 against cytokine signaling via JAK were measured by STAT phosphorylation assay using human whole blood.
Human whole blood was collected from healthy humans.
Human IL-6 was purchased from R&D systems.
Each compound was used at six concentrations of 3 μM, 1.5 μM, 0.75 μM, 0.38 μM, 0.19 μM and 0.093 μM, at six concentrations of 2 μM, 1 μM, 0.5 μM, 0.25 μM, 0.13 μM and 0.063 μM, or at six concentrations of 10 μM, 5 μM, 2.5 μM, 1.25 μM, 0.63 μM and 0.31 μM.
The concentration of human IL-6 was 100 ng/mL.
(§12) Human blood and a compound were put into each Costar assay block tube and incubated at 37° C. for 30 minutes, then incubated with human IL-6 at 37° C. for 15 minutes and incubated with 10 times as much of BD Phosflow Lyse/Fix Buffer as the blood at 37° C. for 12 minutes. Centrifugal separation was carried out at 5,884 m/s^2 for 6 minutes with a centrifugal separator to precipitate the cells, and the supernatants were removed.
(§13) The cell pellets were washed with 1 mL of phosphate buffered saline (PBS), then incubated with 0.6 mL of BD Phosflow Perm Buffer III on ice for 30 minutes and centrifuged at 5,884 m/s^2 for 6 minutes by means of a centrifugal separator to precipitate the cells, and the supernatants were removed.
(§14) The cell pellets were washed with 0.3 mL of BD Pharmingen Stain Buffer and incubated with 0.1 mL of BD Pharmingen Stain Buffer, 10 μL of BD Phosflow STAT-1 and 5 μL of FITC-hCD3 at room temperature for 30 minutes. After addition of 0.1 mL of BD Pharmingen Stain Buffer, the cells were centrifuged at 5,884 m/s^2 for 6 minutes by means of a centrifugal separator to precipitate the cells, and the supernatants were removed.
(§15) The cell pellets were washed with 0.3 mL of BD Pharmingen Stain Buffer, and 0.12 mL of BD Pharmingen Stain Buffer was added. The cytokine signaling inhibition was measured with FACS Cantoll (manufactured by BD) by detecting FITC-labeled CD3 positive T cells and detecting the amount of phosphated STAT-1 protein in the cells as the PE fluorescence. From the plot of the logarithm of a compound concentration and inhibitory activity, the IC50 value was calculated.

JAK1 = JAK1 (Homo sapiens (Human), UniProt P23458); assay: JAK1 enzyme assay; type: biochemical; details: enzyme 0.5 μg/mL, ATP 70 μM
Sequence of JAK1 (P23458 whole entry): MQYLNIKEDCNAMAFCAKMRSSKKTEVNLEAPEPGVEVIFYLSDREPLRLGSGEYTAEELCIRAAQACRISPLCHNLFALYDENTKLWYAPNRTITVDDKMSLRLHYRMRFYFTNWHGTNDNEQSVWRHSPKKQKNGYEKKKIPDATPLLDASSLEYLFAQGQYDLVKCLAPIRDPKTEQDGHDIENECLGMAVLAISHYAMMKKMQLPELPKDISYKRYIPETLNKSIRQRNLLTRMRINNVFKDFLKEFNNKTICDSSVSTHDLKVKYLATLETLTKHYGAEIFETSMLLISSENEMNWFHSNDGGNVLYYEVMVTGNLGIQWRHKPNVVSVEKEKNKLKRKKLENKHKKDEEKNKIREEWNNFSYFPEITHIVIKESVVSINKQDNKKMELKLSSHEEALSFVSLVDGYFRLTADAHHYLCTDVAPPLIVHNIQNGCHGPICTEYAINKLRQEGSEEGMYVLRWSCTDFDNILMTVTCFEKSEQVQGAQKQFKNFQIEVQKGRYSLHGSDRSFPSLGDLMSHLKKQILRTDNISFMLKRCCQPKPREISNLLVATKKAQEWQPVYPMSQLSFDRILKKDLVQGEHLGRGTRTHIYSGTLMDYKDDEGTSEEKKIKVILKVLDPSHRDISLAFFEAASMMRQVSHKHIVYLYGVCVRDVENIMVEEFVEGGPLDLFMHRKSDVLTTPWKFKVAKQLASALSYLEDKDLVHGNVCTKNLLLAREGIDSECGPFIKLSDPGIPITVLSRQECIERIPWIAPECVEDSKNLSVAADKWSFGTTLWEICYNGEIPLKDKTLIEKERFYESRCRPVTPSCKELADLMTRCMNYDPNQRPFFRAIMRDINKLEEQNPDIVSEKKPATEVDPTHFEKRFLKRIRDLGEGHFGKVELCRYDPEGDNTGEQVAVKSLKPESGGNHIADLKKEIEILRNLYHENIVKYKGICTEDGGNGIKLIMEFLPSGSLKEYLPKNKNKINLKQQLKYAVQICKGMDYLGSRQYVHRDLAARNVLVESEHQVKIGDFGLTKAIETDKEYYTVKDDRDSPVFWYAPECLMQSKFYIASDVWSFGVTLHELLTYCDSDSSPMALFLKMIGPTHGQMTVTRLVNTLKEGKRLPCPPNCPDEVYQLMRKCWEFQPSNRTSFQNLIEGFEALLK
Description: as §1, §2, §3, §4, §5, §6
JAK1 enzyme assay; the enzyme concentration was 0.5 μg/mL, and the ATP concentration was 70 μM.
as §7, §8, §9, §10, §11

JAK3 = JAK3 (Homo sapiens (Human), UniProt P52333); assay: JAK3 enzyme assay; type: biochemical; details: enzyme 0.020 μg/mL, ATP 3 μM
Sequence of JAK3 (P52333 whole entry): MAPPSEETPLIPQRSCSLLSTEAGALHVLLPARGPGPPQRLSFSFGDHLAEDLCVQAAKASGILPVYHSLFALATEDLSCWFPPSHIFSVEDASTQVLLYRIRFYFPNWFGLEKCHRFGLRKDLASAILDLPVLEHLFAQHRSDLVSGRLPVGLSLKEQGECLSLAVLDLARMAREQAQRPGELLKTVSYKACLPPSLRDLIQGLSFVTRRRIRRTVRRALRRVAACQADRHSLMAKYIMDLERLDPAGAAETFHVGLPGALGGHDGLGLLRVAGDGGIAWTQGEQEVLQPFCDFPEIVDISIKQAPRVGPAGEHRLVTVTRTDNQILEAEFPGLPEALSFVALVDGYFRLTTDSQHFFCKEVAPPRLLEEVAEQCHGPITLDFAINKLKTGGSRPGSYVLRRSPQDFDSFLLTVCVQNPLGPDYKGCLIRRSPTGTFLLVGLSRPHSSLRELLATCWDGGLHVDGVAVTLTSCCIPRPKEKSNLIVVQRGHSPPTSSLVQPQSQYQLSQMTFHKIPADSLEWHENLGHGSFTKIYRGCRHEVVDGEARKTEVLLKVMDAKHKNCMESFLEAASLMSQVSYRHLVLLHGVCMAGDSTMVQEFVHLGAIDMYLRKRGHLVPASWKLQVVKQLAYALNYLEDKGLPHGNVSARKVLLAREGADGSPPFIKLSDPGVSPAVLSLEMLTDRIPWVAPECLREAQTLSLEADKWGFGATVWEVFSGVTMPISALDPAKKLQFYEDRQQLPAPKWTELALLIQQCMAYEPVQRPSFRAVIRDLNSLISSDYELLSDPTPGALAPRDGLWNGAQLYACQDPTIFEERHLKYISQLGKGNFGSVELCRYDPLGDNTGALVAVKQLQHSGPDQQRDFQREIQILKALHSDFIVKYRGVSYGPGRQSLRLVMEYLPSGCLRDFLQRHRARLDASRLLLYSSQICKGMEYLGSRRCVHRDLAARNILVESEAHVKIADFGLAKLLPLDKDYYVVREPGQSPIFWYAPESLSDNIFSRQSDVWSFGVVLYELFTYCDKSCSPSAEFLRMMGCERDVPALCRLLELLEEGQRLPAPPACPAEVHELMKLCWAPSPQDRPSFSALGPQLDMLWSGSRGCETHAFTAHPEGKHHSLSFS
Description: as §1, §2, §3, §4, §5, §6
JAK3 enzyme assay; the enzyme concentration was 0.020 μg/mL, and the ATP concentration was 3 μM.
as §7, §8, §9, §10, §11

[2] = test system: cytokine signaling via JAK; assay: Signal assay in rat whole blood (STAT phosphorylation assay); type: cell-based; details: T-cell; female Lewis rat whole blood, rat IL-6 100 ng/mL, phosphated STAT-1 in CD3 positive T cells
Description: 2. Signal Assay in Rat Whole Blood
The inhibitory activities of the compounds of the present invention obtained in Synthetic Examples 1 and 2 against cytokine signaling via JAK were measured by STAT phosphorylation assay using rat whole blood.
Female Lewis rats were purchased from CHARLES RIVER LABORATORIES JAPAN, INC.
Rat IL-6 was purchased from PeproTech.
Each compound was used at three consecutive concentrations of 1 μM, 0.1 μM and 0.01 μM, or 10 μM, 1 μM and 0.1 μM.
The concentration of rat IL-6 was 100 ng/mL.
The concentration of FITC-CD3 was 1 μg/mL.
as §12, with “The” for “Human”, “15” for “30”, “FITC-CD3 at 37° C. for 15 minutes, incubated with rat” for “human”
as §13
as §14, with “Pharmingen Stain Buffer and 10 μL” for “Pharmingen Stain Buffer, 10 μL”, “Phosflow STAT-1 at room” for “Phosflow STAT-1 and 5 μL of FITC-hCD3 at room”
as §15

Sequence of Tyk2 (P29597 whole entry): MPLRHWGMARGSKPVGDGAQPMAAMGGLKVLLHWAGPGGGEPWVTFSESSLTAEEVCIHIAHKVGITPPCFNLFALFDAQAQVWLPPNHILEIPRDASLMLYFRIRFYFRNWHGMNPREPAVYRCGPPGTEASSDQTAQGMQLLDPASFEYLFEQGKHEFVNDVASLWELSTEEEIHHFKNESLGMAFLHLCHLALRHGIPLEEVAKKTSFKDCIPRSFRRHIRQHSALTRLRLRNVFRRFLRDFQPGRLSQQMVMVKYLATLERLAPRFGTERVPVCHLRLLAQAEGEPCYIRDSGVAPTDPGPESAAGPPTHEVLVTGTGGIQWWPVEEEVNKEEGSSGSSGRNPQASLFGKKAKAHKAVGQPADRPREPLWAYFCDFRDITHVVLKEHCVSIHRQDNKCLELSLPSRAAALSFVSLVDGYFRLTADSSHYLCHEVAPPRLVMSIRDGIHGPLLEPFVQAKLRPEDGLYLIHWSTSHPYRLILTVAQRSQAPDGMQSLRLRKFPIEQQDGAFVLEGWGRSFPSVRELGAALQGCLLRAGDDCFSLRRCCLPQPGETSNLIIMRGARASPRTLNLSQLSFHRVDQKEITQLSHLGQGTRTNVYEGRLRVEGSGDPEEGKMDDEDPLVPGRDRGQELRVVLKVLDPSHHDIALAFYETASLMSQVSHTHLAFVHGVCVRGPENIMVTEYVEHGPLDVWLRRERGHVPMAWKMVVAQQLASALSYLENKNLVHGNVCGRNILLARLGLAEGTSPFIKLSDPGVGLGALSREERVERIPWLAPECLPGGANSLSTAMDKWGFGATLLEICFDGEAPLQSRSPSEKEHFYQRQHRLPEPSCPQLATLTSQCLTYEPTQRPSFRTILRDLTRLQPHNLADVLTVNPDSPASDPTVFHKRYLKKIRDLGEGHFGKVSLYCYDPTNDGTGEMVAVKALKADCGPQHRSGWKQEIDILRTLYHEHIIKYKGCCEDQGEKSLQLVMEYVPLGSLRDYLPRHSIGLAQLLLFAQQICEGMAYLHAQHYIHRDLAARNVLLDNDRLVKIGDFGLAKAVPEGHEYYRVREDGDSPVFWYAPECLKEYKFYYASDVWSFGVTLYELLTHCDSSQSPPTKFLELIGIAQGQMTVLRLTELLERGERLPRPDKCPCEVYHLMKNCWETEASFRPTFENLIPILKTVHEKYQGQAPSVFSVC

Row | pIC50 (Tyk2) | pIC50 (JAK2) | pIC50 [1] | pIC50 (JAK1) | pIC50 (JAK3) | pIC50 [2] | SMILES
1 | 7.72 | 8.80 | 6.89 | 9.17 | 8.60 | – | O=c1ccn([C@H]2CC[C@H](COCCC(F)(F)F)CC2)c2c1cnc1[nH]ccc12 [Synthetic Example 6, 1-{trans-4-[(3,3,3-Trifluoropropoxy)methyl]cyclohexyl}-1H-pyrrolo[2,3-h][1,6]naphthyridin-4(7H)-one]
2 | 7.74 | 8.29 | 6.36 | 8.77 | 8.00 | – | N#CC[C@@H](NC[C@H]1CC[C@H](n2ccc(=O)c3cnc4[nH]ccc4c32)CC1)C(F)(F)F [Synthetic Example 3, (R)-4,4,4-Trifluoro-3-({[trans-4-(4-oxo-4,7-dihydro-1H-pyrrolo[2,3-h][1,6]naphthyridin-1-yl)cyclohexyl]methyl}amino)butanenitrile]
3 | – | – | 5.12 | – | – | – | Cc1nc(CN2CCC(n3ccc(=O)c4cnc5[nH]ccc5c43)CC2)cs1 [Compound J, reference compound]
4 | – | – | 5.19 | – | – | – | COC1CCC(n2ccc(=O)c3cnc4[nH]ccc4c32)CC1 (stereo not shown) [Compound G, reference compound]
5 | – | – | – | – | – | 5.62 | O=c1[nH]c(=O)n(C2CCC(CNCC(F)(F)F)CC2)c2c1cnc1[nH]ccc12 (stereo not shown) [A]
6 | 7.59 | 8.82 | – | 9.46 | 8.54 | 6.57 | O=c1[nH]c(=O)n([C@H]2CC[C@H](COCCC(F)(F)F)CC2)c2c1cnc1[nH]ccc12 [Synthetic Example 2, 1-{trans-4-[(3,3,3-Trifluoropropoxy)methyl]cyclohexyl}-1H-pyrrolo[3′,2′:5,6]pyrido[4,3-d]pyrimidine-2,4(3H,7H)-dione]
7 | 7.96 | 8.70 | 6.82 | 9.13 | 8.29 | – | N#CC[C@@H](OC[C@H]1CC[C@H](n2ccc(=O)c3cnc4[nH]ccc4c32)CC1)C(F)(F)F [Synthetic Example 7, (R)-4,4,4-Trifluoro-3-{[trans-4-(4-oxo-4,7-dihydro-1H-pyrrolo[2,3-h][1,6]naphthyridin-1-yl)cyclohexyl]methoxy}butanenitrile]
8 | 7.66 | 8.34 | – | 9.00 | 7.82 | 6.41 | N#CC[C@@H](NC[C@H]1CC[C@H](n2c(=O)[nH]c(=O)c3cnc4[nH]ccc4c32)CC1)C(F)(F)F [Synthetic Example 1, (R)-3-({[trans-4-(2,4-Dioxo-2,3,4,7-tetrahydro-1H-pyrrolo[3′,2′:5,6]pyrido[4,3-d]pyrimidin-1-yl)cyclohexyl]methyl}amino)-4,4,4-trifluorobutanenitrile]
9 | 7.41 | 8.72 | 6.52 | 9.39 | 8.15 | – | Cc1cnn(C[C@H]2CC[C@H](n3ccc(=O)c4cnc5[nH]ccc5c43)CC2)c1 [Synthetic Example 4, 1-{trans-4-[(4-Methyl-1H-pyrazol-1-yl)methyl]cyclohexyl}-1H-pyrrolo[2,3-h][1,6]naphthyridin-4(7H)-one]
10 | – | – | – | – | – | 5.89 | N#CCCN(CCC#N)CC1CCC(n2c(=O)[nH]c(=O)c3cnc4[nH]ccc4c32)CC1 (stereo not shown) [Compound B]
11 | 8.00 | – | 6.77 | 9.23 | 8.57 | – | O=c1ccn([C@H]2CC[C@H](COCC(F)(F)F)CC2)c2c1cnc1[nH]ccc12 [Synthetic Example 5, 1-{trans-4-[(2,2,2-Trifluoroethoxy)methyl]cyclohexyl}-1H-pyrrolo[2,3-h][1,6]naphthyridin-4(7H)-one]
12 | – | – | 5.89 | – | – | – | O=c1ccn(C2CCCCC2)c2c1cnc1[nH]ccc12 [Compound E, reference compound]
13 | – | – | 5.23 | – | – | – | O=C1CCN(C2CCC(CO)CC2)c2c1cnc1[nH]ccc21 (stereo not shown) [Compound F, reference compound]
